In ChEMBL document CHEMBL5136978, “Research progress in pharmacological activities and structure-activity relationships of tetralone scaffolds as pharmacophore and fluorescent skeleton” (Eur J Med Chem, 2022):
≈ marks a conversion by molar mass, not a printed value.

Legend:
HepG2 [1] = assay: Downregulation of NF-kappaB in human HepG2 cells xenografted in BALB/c mouse at 160 mg/kg/day, ip for 19 days and measured after 24 hrs post last dose by immunohistochemical analysis relative to control; format: functional; settings: time 20 day
HepG2 [2] = assay: Downregulation of phosphorylated Akt in human HepG2 cells xenografted in BALB/c mouse at 160 mg/kg/day, ip for 19 days and measured after 24 hrs post last dose by immunohistochemical analysis relative to control; format: functional; settings: time 20 day
L02 = assay: Antiproliferative activity against human L02 cells assessed as cell growth inhibition at 500 uM for 24 to 72 hrs by MTT assay relative to control; format: functional; parameters: scale not given: the % may be the effect or the level left; settings: time 24-72 hrs
HepG2 [3] = assay: Antiproliferative activity against human HepG2 cells assessed as cell growth inhibition at 500 uM for 24 to 72 hrs by MTT assay relative to control; format: functional; parameters: scale not given: the % may be the effect or the level left; settings: time 24-72 hrs
HepG2 [4] = assay: Downregulation of MMP2 in human HepG2 cells xenografted in BALB/c mouse at 160 mg/kg/day, ip for 19 days and measured after 24 hrs post last dose by immunohistochemical analysis relative to control; format: functional; settings: time 20 day
HepG2 [5] = assay: Downregulation of MMP9 in human HepG2 cells xenografted in BALB/c mouse at 160 mg/kg/day, ip for 19 days and measured after 24 hrs post last dose by immunohistochemical analysis relative to control; format: functional; settings: time 20 day
MCF7 [6] = assay: cells; format: functional, cell-based; settings: Homo sapiens, MCF7, 72 h
Description: Cytotoxicity against human MCF7 cells assessed as cell growth inhibition incubated for 3 days by MTT assay

[7] = target: T1, Amine oxidase [flavin-containing] B (Homo sapiens, UniProt P27338); assay: Inhibition of MAO-B (unknown origin)
T1 sequence (P27338 whole entry): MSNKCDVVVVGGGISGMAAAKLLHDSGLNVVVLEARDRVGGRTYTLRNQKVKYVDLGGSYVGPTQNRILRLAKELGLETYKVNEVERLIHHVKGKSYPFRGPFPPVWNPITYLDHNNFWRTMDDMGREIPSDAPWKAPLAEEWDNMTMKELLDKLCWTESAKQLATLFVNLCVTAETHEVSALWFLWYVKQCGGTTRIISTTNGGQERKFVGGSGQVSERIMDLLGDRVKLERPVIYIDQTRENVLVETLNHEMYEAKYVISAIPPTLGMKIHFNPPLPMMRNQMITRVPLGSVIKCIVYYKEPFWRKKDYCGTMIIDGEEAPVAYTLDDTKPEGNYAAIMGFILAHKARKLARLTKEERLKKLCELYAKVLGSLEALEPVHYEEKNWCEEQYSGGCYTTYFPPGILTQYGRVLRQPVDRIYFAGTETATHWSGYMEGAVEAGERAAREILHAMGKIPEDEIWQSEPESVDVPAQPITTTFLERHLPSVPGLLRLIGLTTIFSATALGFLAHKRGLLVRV

Homo sapiens [8] = species: Homo sapiens; assay: Selectivity index, ratio of IC50 for MAO-A (unknown origin) to IC50 for MAO-B (unknown origin)
[9] = target: T2, Amine oxidase [flavin-containing] A (Homo sapiens, UniProt P21397); assay: Inhibition of MAO-A (unknown origin)
T2 sequence (P21397 whole entry): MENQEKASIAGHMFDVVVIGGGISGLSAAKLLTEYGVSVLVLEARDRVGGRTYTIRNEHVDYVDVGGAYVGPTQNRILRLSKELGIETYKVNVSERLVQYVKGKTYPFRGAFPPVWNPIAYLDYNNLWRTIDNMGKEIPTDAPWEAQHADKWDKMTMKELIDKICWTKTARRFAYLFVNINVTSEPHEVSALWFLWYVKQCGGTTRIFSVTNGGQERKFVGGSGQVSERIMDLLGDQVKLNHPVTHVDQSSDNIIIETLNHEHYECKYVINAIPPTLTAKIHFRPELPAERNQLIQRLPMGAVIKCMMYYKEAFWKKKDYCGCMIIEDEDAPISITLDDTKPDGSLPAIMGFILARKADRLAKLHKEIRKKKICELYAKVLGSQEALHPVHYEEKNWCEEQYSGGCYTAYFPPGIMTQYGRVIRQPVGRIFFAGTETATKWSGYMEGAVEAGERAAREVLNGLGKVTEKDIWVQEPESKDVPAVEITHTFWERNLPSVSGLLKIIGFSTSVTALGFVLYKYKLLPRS

RAW264.7 = assay: Inhibition of ROS production in LPS-stimulated mouse RAW264.7 cells preincubated for 1 hr followed by LPS stimulation measured after 24 hrs by fluorometry; format: functional, cell-based
[10] = target: T2, Amine oxidase [flavin-containing] A; assay: Inhibition of recombinant human MAO-A assessed as measuring amount of 4-hydroxyquinoline using kynuramine as substrate incubated for 20 mins by fluorescence spectrophotometry
[11] = target: T3, 1,25-dihydroxyvitamin D(3) 24-hydroxylase, mitochondrial (Homo sapiens, UniProt Q07973); assay: Inhibition of CYP24 (unknown origin); format: ADME
MDA-MB-231 = assay: Cytotoxicity against human MDA-MB-231 cells assessed as cell growth inhibition incubated for 72 hrs by alamar blue staining based assay; format: functional; settings: MDA-MB-231, 72 h
Aspergillus fumigatus = assay: Antifungal activity against Aspergillus fumigatus MTCC 343 assessed as fungal growth inhibition; format: functional
Candida albicans = assay: Antifungal activity against Candida albicans MTCC 227 assessed as fungal growth inhibition; format: functional
[12] = target: T2, Amine oxidase [flavin-containing] A; assay: Inhibition of human MAO-A assessed as measuring amount of 4-hydroxyquinoline using kynuramine as substrate incubated for 20 mins by fluorescence spectrophotometry
[13] = target: T1, Amine oxidase [flavin-containing] B; assay: Inhibition of human MAO-B assessed as measuring amount of 4-hydroxyquinoline using kynuramine as substrate incubated for 20 mins by fluorescence spectrophotometry
Homo sapiens [14] = species: Homo sapiens; assay: Selectivity index, ratio of IC50 for human MAO-A to IC50 for human MAO-B
Nannizzia gypsea = assay: Antifungal activity against Microsporum gypseum C 115 2000 assessed as fungal growth inhibition by cup-plate method; format: functional
DU-145 = assay: Cytotoxicity against 1,25-(OH)2D3-treated human DU-145 cells assessed as cell growth inhibition incubated for 96 hrs and re-dosed after 48 hrs […] by MTT assay relative to control; format: functional; parameters: scale not given: the % may be the effect or the level left; settings: time 273 hrs
[15] = target: T3, 1,25-dihydroxyvitamin D(3) 24-hydroxylase, mitochondrial; assay: Displacement of 25-hydroxy-[26,27-methyl-3H]-vitamin D3 from CYP24 in 1,25(OH)2D3-treated human DU-145 cells using 25-(OH)D3 as substrate pretreated with 1,25(OH)2D3 for 24 hrs followed by compound addition measured after 30 mins by HPLC analysis; format: cell-based
HT-29 = assay: Antiproliferative activity against human HT-29 cells assessed as cell growth inhibition by MTT assay; format: functional, cell-based
HepG2 [16] = assay: Antiproliferative activity against human HepG2 cells assessed as cell growth inhibition by MTT assay; format: functional, cell-based
T-24 = assay: Antiproliferative activity against human T24 cells assessed as cell growth inhibition by MTT assay; format: functional, cell-based
MCF7 [17] = assay: Antiproliferative activity against human MCF7 cells assessed as cell growth inhibition by MTT assay; format: functional, cell-based
A549 = assay: Antiproliferative activity against human A549 cells assessed as cell growth inhibition by MTT assay; format: functional, cell-based
[18] = test system: Trypanosoma brucei brucei; assay: Antitrypanosomal activity against Trypanosoma brucei brucei trypomastigotes assessed as parasite viability measured after 48 hrs by resazurin based fluorescence assay; format: functional, organism-based
[19] = test system: Trypanosoma brucei brucei; assay: Antitrypanosomal activity against Trypanosoma brucei brucei trypomastigotes assessed as parasite viability measured after 48 hrs by resazurin based fluorescence assay relative to control; format: functional
[20] = Antioxidant activity assessed as superoxide scavenging activity incubated for 20 mins by absorbance based assay; format: functional
[21] = Antioxidant activity assessed as hydroxyl radical scavenging activity incubated for 30 mins by absorbance based assay; format: functional
[22] = Antioxidant activity assessed as DPPH radical scavenging activity incubated for 30 mins under dark condition by absorbance based assay; format: functional

T3 sequence (Q07973 whole entry): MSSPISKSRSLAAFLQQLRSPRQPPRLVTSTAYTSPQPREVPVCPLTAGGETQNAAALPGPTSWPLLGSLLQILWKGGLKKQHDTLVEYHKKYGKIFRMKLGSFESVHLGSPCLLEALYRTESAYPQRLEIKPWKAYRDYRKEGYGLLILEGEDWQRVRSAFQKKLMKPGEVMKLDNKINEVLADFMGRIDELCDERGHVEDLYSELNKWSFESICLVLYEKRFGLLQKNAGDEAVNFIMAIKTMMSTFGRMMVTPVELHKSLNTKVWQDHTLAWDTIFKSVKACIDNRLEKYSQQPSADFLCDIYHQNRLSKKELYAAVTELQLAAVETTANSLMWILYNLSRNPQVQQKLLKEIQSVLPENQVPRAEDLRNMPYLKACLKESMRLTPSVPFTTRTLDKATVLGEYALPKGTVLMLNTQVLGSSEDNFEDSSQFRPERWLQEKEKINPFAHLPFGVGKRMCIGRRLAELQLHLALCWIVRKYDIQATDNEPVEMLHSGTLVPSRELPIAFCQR

COc1ccc2c(c1)C(=O)CCC2
Activity (HepG2 [1]): 35.47% | Activity (HepG2 [2]): 2.91% | Activity (L02): >50% | Activity (HepG2 [3]): >50% | Activity (HepG2 [4]): 9.69% | Activity (HepG2 [5]): 7.64%

COc1ccc(C2C(C#N)=C(N)Oc3c2s/c(=N\c2ccc(Br)cc2)n3/N=C2\CCCc3cc(OC)ccc32)cc1 (configuration not stated)
IC50 (MCF7 [6]): 930 nM

O=C1/C(=C/c2cccc(Br)c2)CCc2ccc(O)cc21
IC50 [7]: 13 nM | Ratio IC50 (Homo sapiens [8]): 58 | IC50 [9]: 754 nM

Nc1ccc2c(c1)CC/C(=C\c1ccccc1F)C2=O
IC50 (RAW264.7): 250 nM

O=C1CCCc2ccc(OCc3ccc(Cl)cc3)cc21
IC50 [10]: 36 nM

COc1ccc2c(c1)CC/C(=C\c1cc(C(F)(F)F)ccc1C(F)(F)F)C2=O
IC50 [11]: 900 nM

C[C@H]1CC(=O)c2c(O)cccc2[C@@H]1O
IC50 (MDA-MB-231): > 520000 nM

COc1ccc2c(c1)CC[C@@H]1C2=NN(C2=NC(=O)CS2)[C@@H]1c1ccccc1
MIC (Aspergillus fumigatus): 12.5 µg/mL (≈ 33.1 µM) | MIC (Candida albicans): 12.5 µg/mL (≈ 33.1 µM)

COc1ccc2c(c1)C(=O)/C(=C/c1ccc[nH]1)CC2
IC50 [12]: 1960 nM | IC50 [13]: 707 nM | Ratio IC50 (Homo sapiens [14]): 2.8

O=C1/C(=C/c2ccc(Cl)cc2)CCc2ccccc21
MIC (Nannizzia gypsea): 3 µg/mL (≈ 11.2 µM)

COc1ccc2c(c1)CCC(Cc1ccc(O)cc1)C2=O (configuration not stated)
Activity (DU-145): 25% | IC50 [15]: 3500 nM

CC(C)c1ccc2c(c1)C(C)(C)CC(Sc1nc(N)n(S(=O)(=O)c3ccc(Cl)c([N+](=O)[O-])c3)n1)C2=O (configuration not stated)
IC50 (HT-29): 22200 nM | IC50 (HepG2 [16]): 21400 nM | IC50 (T-24): 26900 nM | IC50 (MCF7 [17]): 28900 nM | IC50 (A549): 9890 nM

O=C1/C(=C/c2ccccc2-c2ccccc2)CCc2cc(O)ccc21
IC50 [18]: 400 nM | Activity [19]: 0.7%

O=C(/C=C/c1ccc(O)cc1)OC[C@H]1O[C@@H](Oc2ccc(O)c3c2C[C@H](O)CC3=O)C[C@@H](O)[C@@H]1O
IC50 [20]: 61200 nM | IC50 [21]: 2000 nM | IC50 [22]: 57500 nM
